Like-named read-outs stand apart in the source and are kept apart here.
Key:
[1] = target: T1, SP9030 (human leukotriene receptor, SEQ ID NO: 2) (Homo sapiens, UniProt Q9NPC1); experiment: Radioligand competition assay using ^3H-LTB4 as the label on membranes of COS-7 cells transfected with SP9030 cDNA; type: binding; settings: for Ki: read-out: Ki (competition with ^3H-LTB4); for Affinity of the receptor for the ligand (in words): summary statement
T1 construct: The ORF of SP9030 was cloned in the expression vector pCR3.1 (pCR3.1-SP9030); expressed in transfected cells; host or cells: COS-7 cells (membranes)
T1 sequence (Q9NPC1 1-358): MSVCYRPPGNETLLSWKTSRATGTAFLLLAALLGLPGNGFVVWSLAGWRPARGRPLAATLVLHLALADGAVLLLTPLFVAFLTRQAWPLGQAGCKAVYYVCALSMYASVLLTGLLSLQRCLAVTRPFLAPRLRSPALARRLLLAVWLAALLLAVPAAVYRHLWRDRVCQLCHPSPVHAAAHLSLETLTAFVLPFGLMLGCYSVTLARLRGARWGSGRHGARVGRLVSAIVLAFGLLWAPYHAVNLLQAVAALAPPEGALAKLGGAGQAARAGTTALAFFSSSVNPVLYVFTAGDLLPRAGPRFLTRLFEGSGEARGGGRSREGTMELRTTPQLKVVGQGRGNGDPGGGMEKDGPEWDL
Experimental: COS-7 cells, grown in DMEM/10% FCS until 80-90% confluence, were transfected with SuperFect agent (Giagene) at 20 μg DNA/150 mm plate. Forty eight hours after transfection, medium was changed to Opti-MEM or DMEM/Opti-MEM(1:1)/5% FCS. Cells were harvested 72 hours after transfection and membranes from the cells were prepared as follows. The cells were washed with 20 ml PBS without Ca^2+/Mg^2+ and incubated with 10 ml […] Hepes pH 7.4, 0.5 mM PMSF, 20 μg/ml aprotinin. The cells were scraped off the plate and vortexed. The cell suspension was then centrifuged at 13,000 g at 4° C. for 15 min. The pellets were re-suspended in 1.8 ml 50 mM Tris-Cl, pH 7.5 and vortexed. The membranes were homogenized with a 23-gauge needle. The protein concentration of the membrane preparations was determined with the BCA agents (Pierce).
Radioligand binding assays were performed to test the ability of SP9030, when expressed in cultured cells, to bind ^3H-labeled leukotriene. The ORF of SP9030 was cloned in the expression vector pCR3.1 (pCR3.1-SP9030). COS-7 cells were transfected with pCR3.1-SP9030 or pCR3.1 alone (mock transfection). Two days after transfection, the normal growth medium DMEM/10% FCS was replaced by either Opti-MEM or DMEM-Opti-MEM/5% FCS. The cells were allowed to grow one more day and then membranes were prepared for use in binding assay.
The reactions were incubated for 1 hour at 4° C. while rotated slowly. Multiscreen FB filters (Millipore) pre-soaked with 50 μl binding assay buffer for 1 hour at room temperature were used to filter the binding assays and the filters were washed twice with 100 μl 50 mM TrisCl, pH 7.5 (ice cold). Fifty microliters of scintillation fluid was added to the filters and counted to detect the bound radioligands. For radioligand competition assays, 160 μl binding assay buffer containing appropriate membranes were mixed with 20 μl of binding assay buffer containing 6% DMSO (v/v) and various concentrations of competing compounds. […] The final concentration of radioligand was 0.25 nM. Incubation conditions were the same as that used for the above described saturation assays.
COS-7 cells transfected with SP9030 cDNA were harvested three days after transfection and membrane prepared from cells used for binding assays.

[2] = target: T2, SP9030 expressed in 293-EBNA cells (Homo sapiens, UniProt Q9NPC1); experiment: Intracellular Ca2+ flux measurement (FLIPR) in 293-EBNA cells expressing SP9030; type: cell-based; settings: 293-EBNA cells transfected with SP9030, Fluo-3, FLIPR
T2 construct: expressed in transfected cells; host or cells: 293-EBNA cells
T2 sequence (Q9NPC1 1-358): T1 sequence (Q9NPC1 1-358)
Experimental: (§1) 293-EBNA cells, grown in DMEM containing 10% FCS until 80-90% confluence, were transfected with SuperFect transfection agent. The next day, cells were trypsinized off culture plates and washed with PBS lacking Ca^2+/Mg^2+. The cells were then seeded at a density of 35,000 cells per 100 μl medium) into 96-well plates that were pre-coated with poly-D-lysine (Becton Dickinson). The third day following transfection, medium was removed from cells and 100 μl Hank's balanced salt solution (lacking phenol red) containing 4 μM of Fluo-3, AM (Molecular Probes), 20 mM Hepes, pH 7.4, 0.1% (w/v) BSA and […] added and subsequently incubated at 37° C., 5% CO2 for 1 hour. The cells were then washed three times with 150 μl wash buffer containing HANK's BSS, 40 mM Hepes, pH 7.4 and […]. One hundred μl of the wash buffer was added after the final wash and Ca^2+ flux was measured after addition of 40 μl of wash buffer containing appropriate concentration of ligands. The FLIPR instrument (Molecular Device) was used in the measurement of Ca^2+ flux.
(§2) Intracellular function that the SP9030 receptor may mediate through activation by its ligand was examined in measurements of intracellular Ca^2+ flux.

[3] = system: 293-EBNA cells mock transfected without SP9030 cDNA; experiment: Intracellular Ca2+ flux measurement (FLIPR) in mock transfected 293-EBNA cells; type: cell-based
Experimental: as §1, §2

Ki ([1]; 0.25 nM ^3H-LTB4, Ki=EC50/(1+[^3H-LTB4]/Kd), Kd […]) | Affinity of the receptor for the ligand (in words) [1] | Cellular Ca2+ release [2] | SMILES | Ki [1] | Ca2+ response to incubation with ligand [3]
8.6 ± 5.3 nM | high affinity |  | CC/C=C\C/C=C\C[C@@H](O)/C=C/C=C/C=C\[C@@H](O)CCCC(=O)O [LTB5, leukotriene B5] |  | 
 | high affinity | activated cellular Ca^2+ release | CCCCC/C=C\C[C@@H](O)/C=C/C=C/C=C\[C@@H](O)CCCC(=O)O [LTB4, leukotriene B4] |  | did not respond
 | high affinity |  | CCCCC[C@H](O)/C=C/C=C\C/C=C\C/C=C\CCCC(=O)O [15(5)-OH-5z, 8z, 11z, 13e)-eicosatetraenoic acid] |  | 

SMILES | Ki ([1]; 0.25 nM ^3H-LTB4, Ki=EC50/(1+[^3H-LTB4]/Kd), Kd […]) | Affinity of the receptor for the ligand (in words) [1] | Cellular Ca2+ release [2] | Ki [1] | Ca2+ response to incubation with ligand [3]
CCCCC[C@H](O)/C=C/C=C\C=C\C=C\[C@@H](O)[C@@H](O)CCCC(=O)O [lipoxin A4] |  | high affinity |  | 112 ± 40 nM | 

Reference: patent US6939953B2, “Leukotriene receptor” (Schering Corporation, priority 1999, dated 2005)
